We go through four compounds from patent publication US10045981B2, “Selective kinase inhibitors” (JAKPHARM, LLC, priority 2015, dated 2018).

The target in one data set is T1, JAK3 (Homo sapiens, UniProt P52333).
T1 sequence (P52333 1-1124): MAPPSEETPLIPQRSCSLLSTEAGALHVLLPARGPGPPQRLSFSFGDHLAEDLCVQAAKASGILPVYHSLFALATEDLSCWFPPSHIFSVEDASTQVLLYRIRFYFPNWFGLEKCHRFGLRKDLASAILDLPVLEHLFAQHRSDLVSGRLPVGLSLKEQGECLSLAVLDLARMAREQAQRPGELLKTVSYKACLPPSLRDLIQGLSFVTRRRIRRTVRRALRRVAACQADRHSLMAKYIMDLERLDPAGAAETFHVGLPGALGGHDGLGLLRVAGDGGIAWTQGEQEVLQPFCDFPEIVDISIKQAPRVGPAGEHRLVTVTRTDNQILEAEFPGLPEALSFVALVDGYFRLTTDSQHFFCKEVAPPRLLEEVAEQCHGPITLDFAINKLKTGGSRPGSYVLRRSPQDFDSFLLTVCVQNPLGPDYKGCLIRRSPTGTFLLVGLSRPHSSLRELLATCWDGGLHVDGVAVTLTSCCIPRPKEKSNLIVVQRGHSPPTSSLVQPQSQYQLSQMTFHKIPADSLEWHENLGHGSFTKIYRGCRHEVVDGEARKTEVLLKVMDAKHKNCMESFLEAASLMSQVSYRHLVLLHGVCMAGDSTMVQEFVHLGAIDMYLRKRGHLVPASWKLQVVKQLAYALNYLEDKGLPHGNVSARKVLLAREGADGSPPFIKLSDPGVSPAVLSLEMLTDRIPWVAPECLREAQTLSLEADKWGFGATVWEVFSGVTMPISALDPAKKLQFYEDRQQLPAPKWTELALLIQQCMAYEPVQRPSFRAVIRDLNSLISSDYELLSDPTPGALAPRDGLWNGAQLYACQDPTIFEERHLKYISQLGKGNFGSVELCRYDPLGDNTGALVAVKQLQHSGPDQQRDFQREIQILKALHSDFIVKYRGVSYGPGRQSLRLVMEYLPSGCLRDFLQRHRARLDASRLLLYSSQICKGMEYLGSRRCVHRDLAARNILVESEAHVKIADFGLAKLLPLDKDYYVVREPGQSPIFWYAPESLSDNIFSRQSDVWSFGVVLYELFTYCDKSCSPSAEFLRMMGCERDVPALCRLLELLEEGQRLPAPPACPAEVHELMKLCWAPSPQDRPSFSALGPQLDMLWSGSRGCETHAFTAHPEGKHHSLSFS
Put plainly: JAK3 biochemical IC50. The conditions noted are these: for JAK3 selectivity vs. STAT5: STAT5 IC50 relative to JAK3 IC50; for selectivity for JAK3 compared to JAK1, JAK2, and TYK2 (in words): two independent analyses.

The target of another data set is CK1g1 (Homo sapiens, UniProt Q9HCP0). Put plainly: Exemplary Kinase Panel Analysis. The format is biochemical. The settings on record: 10 concentrations, 3-fold serial dilutions starting at 5 μM, duplicate.
Sequence of CK1g1 (Q9HCP0 whole entry): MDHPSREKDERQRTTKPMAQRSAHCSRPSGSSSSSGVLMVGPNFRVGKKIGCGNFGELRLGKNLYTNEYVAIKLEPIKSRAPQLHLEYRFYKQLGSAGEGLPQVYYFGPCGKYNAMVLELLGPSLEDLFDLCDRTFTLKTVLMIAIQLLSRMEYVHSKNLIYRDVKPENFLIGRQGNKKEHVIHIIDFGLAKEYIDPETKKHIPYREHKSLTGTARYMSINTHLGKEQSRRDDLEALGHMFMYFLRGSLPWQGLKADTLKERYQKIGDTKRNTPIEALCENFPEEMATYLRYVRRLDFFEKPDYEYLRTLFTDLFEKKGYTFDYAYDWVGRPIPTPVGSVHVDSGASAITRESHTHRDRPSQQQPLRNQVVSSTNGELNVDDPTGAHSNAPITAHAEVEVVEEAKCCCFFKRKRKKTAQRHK
For another data set, the target named is T2, ITK (Homo sapiens, UniProt Q08881).
T2 sequence (Q08881 1-620): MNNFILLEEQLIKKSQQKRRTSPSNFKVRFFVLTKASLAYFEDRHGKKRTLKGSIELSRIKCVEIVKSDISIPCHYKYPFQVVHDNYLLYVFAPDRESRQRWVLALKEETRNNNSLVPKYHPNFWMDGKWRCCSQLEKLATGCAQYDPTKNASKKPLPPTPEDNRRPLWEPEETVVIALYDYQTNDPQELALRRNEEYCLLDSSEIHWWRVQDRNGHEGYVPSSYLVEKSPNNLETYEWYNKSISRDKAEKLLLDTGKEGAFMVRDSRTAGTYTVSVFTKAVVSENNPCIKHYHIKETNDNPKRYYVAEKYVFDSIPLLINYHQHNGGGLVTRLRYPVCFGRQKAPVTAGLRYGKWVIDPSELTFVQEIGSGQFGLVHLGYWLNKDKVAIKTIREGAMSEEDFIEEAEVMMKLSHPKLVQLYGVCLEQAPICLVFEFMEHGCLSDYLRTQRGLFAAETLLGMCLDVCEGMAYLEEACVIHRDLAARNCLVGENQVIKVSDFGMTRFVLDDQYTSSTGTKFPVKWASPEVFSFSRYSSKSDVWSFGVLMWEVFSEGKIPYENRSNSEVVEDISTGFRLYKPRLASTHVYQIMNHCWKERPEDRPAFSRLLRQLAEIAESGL
In words: Exemplary Kinase Panel Analysis. The settings on record: 10 concentrations, 3-fold serial dilutions starting at 5 μM, duplicate. It counts as biochemical.

The target of a further data set is T3, CYP1A2 (Homo sapiens, UniProt P05177).
T3 sequence (P05177 1-516): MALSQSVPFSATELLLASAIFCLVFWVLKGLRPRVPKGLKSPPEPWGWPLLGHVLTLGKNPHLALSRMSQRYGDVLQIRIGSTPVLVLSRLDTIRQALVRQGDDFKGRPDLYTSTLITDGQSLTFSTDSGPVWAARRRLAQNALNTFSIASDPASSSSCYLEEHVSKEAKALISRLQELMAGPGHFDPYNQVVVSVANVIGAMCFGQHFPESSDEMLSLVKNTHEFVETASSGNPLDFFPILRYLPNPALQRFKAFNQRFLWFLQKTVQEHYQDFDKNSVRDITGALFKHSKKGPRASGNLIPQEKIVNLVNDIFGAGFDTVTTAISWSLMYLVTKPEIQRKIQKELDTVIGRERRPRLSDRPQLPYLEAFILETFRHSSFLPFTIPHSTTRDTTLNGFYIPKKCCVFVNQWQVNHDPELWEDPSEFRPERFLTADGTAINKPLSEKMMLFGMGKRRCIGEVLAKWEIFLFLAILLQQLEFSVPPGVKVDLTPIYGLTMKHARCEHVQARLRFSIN
Put plainly: CYP1A2 inhibition LCMS. The format is in vitro ADME.

Another data set has as its target CYP2C19 (Homo sapiens, UniProt P33261). Put plainly: CYP2C19 inhibition LCMS. It counts as in vitro ADME.
The target of a further data set is CYP3A4 (Homo sapiens, UniProt P08684). Put plainly: CYP3A4 inhibition testosterone LCMS. The format is in vitro ADME. The conditions noted are these: read-out: CYP3A4 K50 [uM] testosterone LCMS.
Sequence of CYP3A4 (P08684 whole entry): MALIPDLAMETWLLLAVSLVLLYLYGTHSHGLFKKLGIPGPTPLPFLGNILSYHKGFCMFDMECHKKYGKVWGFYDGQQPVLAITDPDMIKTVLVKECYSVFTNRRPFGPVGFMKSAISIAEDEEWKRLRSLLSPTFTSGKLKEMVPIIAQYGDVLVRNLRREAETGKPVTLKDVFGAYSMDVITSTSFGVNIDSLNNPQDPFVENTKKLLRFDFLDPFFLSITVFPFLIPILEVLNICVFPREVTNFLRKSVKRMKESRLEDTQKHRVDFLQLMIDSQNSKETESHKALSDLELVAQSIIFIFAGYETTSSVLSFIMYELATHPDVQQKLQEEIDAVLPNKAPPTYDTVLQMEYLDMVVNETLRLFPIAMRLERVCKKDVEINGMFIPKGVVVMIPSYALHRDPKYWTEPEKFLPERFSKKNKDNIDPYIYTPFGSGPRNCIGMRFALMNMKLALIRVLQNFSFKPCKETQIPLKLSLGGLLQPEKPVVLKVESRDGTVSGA
The nature of data set [1]: Human Plasma protein binding. The format is in vitro ADME.
A short description of data set [2]: Mouse Plasma protein binding. It counts as in vitro ADME.
The target in the next data set is T4, hERG (Homo sapiens, UniProt Q12809).
T4 construct: expressed in transfected cells; host or cells: HEK293
T4 sequence (Q12809 whole entry): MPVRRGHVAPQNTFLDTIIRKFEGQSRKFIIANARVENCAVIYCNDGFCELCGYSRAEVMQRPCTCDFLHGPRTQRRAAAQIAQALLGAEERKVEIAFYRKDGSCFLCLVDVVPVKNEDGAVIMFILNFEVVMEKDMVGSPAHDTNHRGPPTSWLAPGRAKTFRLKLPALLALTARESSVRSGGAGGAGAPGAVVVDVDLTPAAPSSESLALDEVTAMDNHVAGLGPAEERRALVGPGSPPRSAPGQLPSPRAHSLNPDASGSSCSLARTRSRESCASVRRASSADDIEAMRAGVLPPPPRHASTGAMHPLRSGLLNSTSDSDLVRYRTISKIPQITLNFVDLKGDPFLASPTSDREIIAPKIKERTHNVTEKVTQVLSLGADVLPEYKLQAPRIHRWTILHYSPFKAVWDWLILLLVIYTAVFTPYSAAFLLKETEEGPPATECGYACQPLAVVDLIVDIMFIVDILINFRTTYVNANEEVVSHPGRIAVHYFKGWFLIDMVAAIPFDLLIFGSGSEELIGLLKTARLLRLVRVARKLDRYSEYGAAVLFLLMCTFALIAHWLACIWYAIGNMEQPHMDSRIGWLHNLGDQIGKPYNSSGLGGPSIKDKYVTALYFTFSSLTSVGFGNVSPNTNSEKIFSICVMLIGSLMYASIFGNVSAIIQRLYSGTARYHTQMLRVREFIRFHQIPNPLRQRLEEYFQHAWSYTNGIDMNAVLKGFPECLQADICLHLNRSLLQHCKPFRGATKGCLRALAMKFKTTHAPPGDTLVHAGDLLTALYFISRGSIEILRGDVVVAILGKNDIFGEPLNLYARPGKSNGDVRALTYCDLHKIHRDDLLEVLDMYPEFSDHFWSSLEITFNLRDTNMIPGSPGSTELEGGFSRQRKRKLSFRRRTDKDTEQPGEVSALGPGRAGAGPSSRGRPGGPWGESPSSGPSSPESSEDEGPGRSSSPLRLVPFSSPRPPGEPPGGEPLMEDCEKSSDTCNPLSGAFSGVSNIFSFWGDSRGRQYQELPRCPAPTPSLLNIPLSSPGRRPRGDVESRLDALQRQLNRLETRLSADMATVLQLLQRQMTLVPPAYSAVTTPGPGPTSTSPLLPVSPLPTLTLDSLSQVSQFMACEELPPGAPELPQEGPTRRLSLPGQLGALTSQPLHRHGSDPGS
Put plainly: hERG K+ channel current in HEK293 cells. The format is cell-based. A general note: hERG is a cardiac potassium channel; its block is linked to QT prolongation.

The target in a further data set is EGFR (G719C) (Homo sapiens, UniProt P00533, G719C). In words: Exemplary Kinase Panel Analysis. The format is biochemical. The settings on record: 10 concentrations, 3-fold serial dilutions starting at 5 μM, duplicate. As to the method: Kinase Panel: These compounds were tested against 439 kinases. […]. […] The results are presented in Table 2 below, where empty cells indicate no inhibition or compound activity that could not be fit to an IC50 curve.
Sequence of EGFR (G719C) (P00533 25-1210 G719C): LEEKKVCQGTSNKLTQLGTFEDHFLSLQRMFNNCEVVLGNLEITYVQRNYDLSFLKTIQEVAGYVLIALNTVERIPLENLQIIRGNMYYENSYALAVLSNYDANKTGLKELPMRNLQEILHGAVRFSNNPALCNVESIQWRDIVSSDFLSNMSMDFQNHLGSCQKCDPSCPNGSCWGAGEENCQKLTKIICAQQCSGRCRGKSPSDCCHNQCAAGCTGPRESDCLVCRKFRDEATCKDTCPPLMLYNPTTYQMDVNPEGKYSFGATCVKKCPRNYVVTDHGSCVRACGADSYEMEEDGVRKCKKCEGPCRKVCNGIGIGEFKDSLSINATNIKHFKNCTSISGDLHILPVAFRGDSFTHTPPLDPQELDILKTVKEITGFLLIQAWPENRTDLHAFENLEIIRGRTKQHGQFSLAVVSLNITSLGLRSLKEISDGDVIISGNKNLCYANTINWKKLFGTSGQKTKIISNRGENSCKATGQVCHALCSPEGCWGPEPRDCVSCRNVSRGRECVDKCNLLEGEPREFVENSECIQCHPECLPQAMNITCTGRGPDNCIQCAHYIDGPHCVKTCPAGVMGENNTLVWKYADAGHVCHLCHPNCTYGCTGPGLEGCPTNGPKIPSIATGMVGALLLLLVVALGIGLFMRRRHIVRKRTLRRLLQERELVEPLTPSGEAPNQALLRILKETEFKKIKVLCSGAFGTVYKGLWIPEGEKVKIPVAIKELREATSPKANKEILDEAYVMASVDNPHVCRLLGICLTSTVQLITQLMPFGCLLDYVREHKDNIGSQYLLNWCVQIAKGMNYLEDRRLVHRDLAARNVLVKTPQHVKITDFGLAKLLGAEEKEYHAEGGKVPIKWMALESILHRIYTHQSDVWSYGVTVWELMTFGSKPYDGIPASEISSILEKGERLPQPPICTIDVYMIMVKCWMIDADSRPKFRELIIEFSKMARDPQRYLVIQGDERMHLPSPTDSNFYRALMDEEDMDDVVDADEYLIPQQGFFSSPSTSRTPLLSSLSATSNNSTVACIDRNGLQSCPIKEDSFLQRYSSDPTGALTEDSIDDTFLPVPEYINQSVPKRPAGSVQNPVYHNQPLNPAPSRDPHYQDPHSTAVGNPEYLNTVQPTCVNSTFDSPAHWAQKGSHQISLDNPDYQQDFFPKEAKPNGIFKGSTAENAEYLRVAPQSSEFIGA

The mark [3] stands for this setting: Original analysis, read-out: JAK3 IC50 (uM) Original.
[4] abbreviates: Table 3, first session (before /), read-out: JAK3 biochemical IC50.
Setting [5] is: Table 3, second session (after /), read-out: JAK3 biochemical IC50.
Setting [6] is: re-test, read-out: JAK3 IC50 (uM) re-test.

Read-outs that look alike come from different tables or passages of the source. Marks after values point to notes of the source that are not given here.

Sequence of CYP2C19 (P33261 whole entry): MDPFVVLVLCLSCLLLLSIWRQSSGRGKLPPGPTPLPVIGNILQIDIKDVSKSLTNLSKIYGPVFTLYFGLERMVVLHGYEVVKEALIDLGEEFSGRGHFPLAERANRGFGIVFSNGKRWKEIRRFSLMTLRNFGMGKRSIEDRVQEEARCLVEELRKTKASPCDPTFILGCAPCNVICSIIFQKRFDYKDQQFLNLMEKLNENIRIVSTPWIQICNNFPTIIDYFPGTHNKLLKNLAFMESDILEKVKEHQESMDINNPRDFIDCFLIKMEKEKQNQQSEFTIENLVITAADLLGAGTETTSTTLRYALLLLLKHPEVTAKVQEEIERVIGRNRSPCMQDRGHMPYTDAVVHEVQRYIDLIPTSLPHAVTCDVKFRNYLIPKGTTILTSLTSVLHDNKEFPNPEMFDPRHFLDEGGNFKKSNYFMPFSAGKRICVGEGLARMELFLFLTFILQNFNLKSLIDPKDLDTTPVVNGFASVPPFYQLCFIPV

One may read the fraction unbound as the share of the substance not bound to proteins or other matrix. The low end stands for extensive binding, the high end for weak binding. Regarding `C=CC(=O)Nc1cc(NS(C)(=O)=O)cc(-c2cnc3ccccc3n2)c1` [Compound 3], the IC50 amounted to 0.016 µM on JAK3 (setting [3]); 0.016 µM on JAK3 (setting [4]); 0.023 µM at JAK3 (setting [5]); 0.023 µM at JAK3 (setting [6]); 109 nM on CK1g1; 278 nM against ITK. Moreover, the IC50 is over 100 µM against CYP1A2 (first session (before /)); over 100 µM against CYP1A2 (second session (after /)); over 100 µM at CYP2C19 (first session (before /)); 59 µM against CYP2C19 (second session (after /)); 89.7 µM on CYP3A4 (first session (before /)); 51 µM on CYP3A4 (second session (after /)). Further, on hERG, the IC50 is over 1000 nM. Besides, the “JAK3 selectivity vs. STAT5” value at JAK3 is “(382X)*”. Also, the “selectivity for JAK3 compared to JAK1, JAK2, and TYK2 (in words)” value (“selectivity for JAK3 compared to JAK1” for short) on JAK3 was “highly selective for JAK3”. Moreover, the fraction unbound in data set [1] is 0.054; in data set [2], 0.147.

Take `C=CC(=O)Nc1cc(CN2CCNC(=O)C2)cc(-c2cnc3ccccc3n2)c1` [Compound 1b, N-[3-[(3-oxopiperazin-1-yl)methyl]-5-quinoxalin-2-yl-phenyl] prop-2-enamide]: the IC50 turned out to be 0.018 µM at JAK3 (setting [3]); 0.018 µM at JAK3 (setting [4]); 0.018 µM on JAK3 (setting [5]); 0.018 µM on JAK3 (setting [6]); 738 nM at CK1g1; 193 nM at EGFR (G719C). For the same compound, the IC50 against ITK was 68 nM; at CYP1A2 (first session (before /)), over 100 µM; against CYP1A2 (second session (after /)), over 100 µM; against CYP2C19 (first session (before /)) it was over 100 µM; at CYP2C19 (second session (after /)) it was over 100 µM; on CYP3A4 (first session (before /)), over 100 µM. Also, the IC50 at CYP3A4 (second session (after /)) is over 100 µM; on hERG, over 10000 nM. Further, the “JAK3 selectivity vs. STAT5” value on JAK3 is “(392X)*”. For the same compound, the “selectivity for JAK3 compared to JAK1” value on JAK3 was “highly selective for JAK3”. Further, the fraction unbound in data set [1] was 0.317; in [2] it was 0.059.

In the case of `C=CC(=O)Nc1cc(CC(=O)OC)cc(-c2cnc3ccccc3n2)c1` [Compound 2], the IC50 at JAK3 (setting [3]) was found to be 0.013 µM; at JAK3 (setting [4]), 0.015 µM; on JAK3 (setting [5]), 0.007 µM; at JAK3 (setting [6]), 0.007 µM; at CK1g1 it was 80.2 nM; against EGFR (G719C) it was 423 nM. Also, the IC50 is 34.9 nM against ITK; 90 µM on CYP1A2 (first session (before /)); 5.1 µM at CYP1A2 (second session (after /)); over 100 µM against CYP2C19 (first session (before /)); 95 µM at CYP2C19 (second session (after /)); over 100 µM on CYP3A4 (first session (before /)). The IC50 is over 100 µM on CYP3A4 (second session (after /)) and over 10000 nM against hERG. For the same compound, the “JAK3 selectivity vs. STAT5” value at JAK3 is given as “(370X)*”. Further, the “selectivity for JAK3 compared to JAK1” value on JAK3 is listed as “highly selective for JAK3”. For the same compound, the fraction unbound in data set [1] was 0.123.

As for `C=CC(=O)Nc1cc(CN2CCN(C)C(=O)C2)cc(-c2cnc3ccccc3n2)c1` [Compound 1a], the IC50 on JAK3 (setting [3]) was determined as 0.013 µM; at JAK3 (setting [4]), 0.013 µM; at JAK3 (setting [5]) it was 0.01 µM; on JAK3 (setting [6]) it was 0.01 µM; against CK1g1, 588 nM; at EGFR (G719C), 66.1 nM. For the same compound, the IC50 against ITK was 72.1 nM; against CYP1A2 (first session (before /)), 34 µM; against CYP1A2 (second session (after /)) it was over 100 µM; against CYP2C19 (first session (before /)), over 100 µM; against CYP2C19 (second session (after /)), 90 µM; on CYP3A4 (first session (before /)) it was 81.5 µM. For the same compound, the IC50 on CYP3A4 (second session (after /)) was over 100 µM; at hERG, over 10000 nM. Moreover, the “JAK3 selectivity vs. STAT5” value at JAK3 is on record as “(178X)*”. The “selectivity for JAK3 compared to JAK1” value on JAK3 was “highly selective for JAK3”. Also, the fraction unbound was 0.223 in data set [1] and 0.034 in data set [2].
